# Laboratory results as given in patent US8722578B2, “Spiroheterocyclic pyrrolidinedione herbicidal compositions” (Syngenta Participations AG, priority 2008, dated 2014).
# Assays:
# [1] = test system: Alopecurus myosuroides (ALOMY); assay: Example A pre-emergence herbicidal activity, glasshouse pot test; assay type: in vivo; details: 480 h, rate 250 g/ha, evaluated 20 days after spraying, read-out: ALOMY pre-emergence activity (100=total damage to plant; 0=no damage to plant)
# Description: (§1) Monocotyledonous and dicotyledonous test plants are sown in standard soil in pots. After cultivation for one day (pre-emergence) or after 10 days cultivation (post-emergence) under controlled conditions in a glasshouse, the plants are sprayed with an aqueous spray solution derived from the formulation of the technical active ingredient in 0.6 ml acetone and 45 ml formulation solution containing 10.6% Emulsogen EL (Registry number 61791-12-6), 42.2% N-methylpyrrolidone, 42.2% dipropylene glycol monomethyl ether (Registry number 34590-94-8) and 0.2% X-77 (Registry number 11097-66-8). The test plants are then grown in a greenhouse under optimum conditions until, 15 days later for post-emergence and 20 days for pre-emergence, the test is evaluated (100=total damage to plant; 0=no damage to plant). Test Plants: Alopecurus myosuroides (ALOMY), Avena fatua (AVEFA), Lolium perenne (LOLPE), Setaria faberi (SETFA), Digitaria sanguinalis (DIGSA), Echinochloa crus-galli (ECHCG) Pre-Emergence Activity
# [2] = test system: Avena fatua (AVEFA); assay: as above; assay type: in vivo; details: 480 h, rate 250 g/ha, evaluated 20 days after spraying, read-out: AVEFA pre-emergence activity (100=total damage to plant; 0=no damage to plant)
# Description: as §1
# [3] = test system: Digitaria sanguinalis (DIGSA); assay: as above; assay type: in vivo; details: 480 h, rate 250 g/ha, evaluated 20 days after spraying, read-out: DIGSA pre-emergence activity (100=total damage to plant; 0=no damage to plant)
# Description: as §1
# [4] = test system: Echinochloa crus-galli (ECHCG); assay: as above; assay type: in vivo; details: 480 h, rate 250 g/ha, evaluated 20 days after spraying, read-out: ECHOG pre-emergence activity (100=total damage to plant; 0=no damage to plant)
# Description: as §1
# [5] = test system: Lolium perenne (LOLPE); assay: as above; assay type: in vivo; details: 480 h, rate 250 g/ha, evaluated 20 days after spraying, read-out: LOLPE pre-emergence activity (100=total damage to plant; 0=no damage to plant)
# Description: as §1
# [6] = test system: Setaria faberi (SETFA); assay: as above; assay type: in vivo; details: 480 h, rate 250 g/ha, evaluated 20 days after spraying, read-out: SETFA pre-emergence activity (100=total damage to plant; 0=no damage to plant)
# Description: as §1
# [7] = test system: Alopecurus myosuroides (ALOMY); assay: Example A post-emergence herbicidal activity, glasshouse pot test; assay type: in vivo; details: 360 h, rate 125 g/ha, evaluated 15 days after spraying, read-out: ALOMY post-emergence activity (100=total damage to plant; 0=no damage to plant)
# Description: as §1, with “Post-Emergence” for “Pre-Emergence”
# [8] = test system: Avena fatua (AVEFA); assay: as above; assay type: in vivo; details: 360 h, rate 125 g/ha, evaluated 15 days after spraying, read-out: AVEFA post-emergence activity (100=total damage to plant; 0=no damage to plant)
# Description: as §1, with “Post-Emergence” for “Pre-Emergence”
# [9] = test system: Digitaria sanguinalis (DIGSA); assay: as above; assay type: in vivo; details: 360 h, rate 125 g/ha, evaluated 15 days after spraying, read-out: DIGSA post-emergence activity (100=total damage to plant; 0=no damage to plant)
# Description: as §1, with “Post-Emergence” for “Pre-Emergence”
# [10] = test system: Echinochloa crus-galli (ECHCG); assay: as above; assay type: in vivo; details: 360 h, rate 125 g/ha, evaluated 15 days after spraying, read-out: ECHOG post-emergence activity (100=total damage to plant; 0=no damage to plant)
# Description: as §1, with “Post-Emergence” for “Pre-Emergence”
# [11] = test system: Lolium perenne (LOLPE); assay: as above; assay type: in vivo; details: 360 h, rate 125 g/ha, evaluated 15 days after spraying, read-out: LOLPE post-emergence activity (100=total damage to plant; 0=no damage to plant)
# Description: as §1, with “Post-Emergence” for “Pre-Emergence”
# [12] = test system: Setaria faberi (SETFA); assay: as above; assay type: in vivo; details: 360 h, rate 125 g/ha, evaluated 15 days after spraying, read-out: SETFA post-emergence activity (100=total damage to plant; 0=no damage to plant)
# Description: as §1, with “Post-Emergence” for “Pre-Emergence”
# [13] = test system: Alopecurus myosuroides (ALOMY); assay: Example B pre-emergence herbicidal activity, glasshouse pot test; assay type: in vivo; details: 312 h, first table (headed Post-Emergence, taken as pre-emergence), rate 250 g/ha, evaluated after 13 days, read-out: ALOMY activity (100=total damage to plant; 0=no damage to plant)
# Summary of the method: (§2)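 Sow seeds in pots of standard soil and grow at 24/16° C day/night, 14 h light, 65% humidity. Spray at 1 day (pre-emergence) or 8 days (post-emergence) with compound in acetone/water (50:50), 0.5% Tween 20. Water twice daily, then score plant damage 0–100 after 13 days.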
# [14] = test system: Avena fatua (AVEFA); assay: as above; assay type: in vivo; details: 312 h, first table (headed Post-Emergence, taken as pre-emergence), rate 250 g/ha, evaluated after 13 days, read-out: AVEFA activity (100=total damage to plant; 0=no damage to plant)
# Summary of the method: as §2
# [15] = test system: Echinochloa crus-galli (ECHCG); assay: as above; assay type: in vivo; details: 312 h, first table (headed Post-Emergence, taken as pre-emergence), rate 250 g/ha, evaluated after 13 days, read-out: ECHCG activity (100=total damage to plant; 0=no damage to plant)
# Summary of the method: as §2
# [16] = test system: Setaria faberi (SETFA); assay: as above; assay type: in vivo; details: 312 h, first table (headed Post-Emergence, taken as pre-emergence), rate 250 g/ha, evaluated after 13 days, read-out: SETFA activity (100=total damage to plant; 0=no damage to plant)
# Summary of the method: as §2
# [17] = test system: Alopecurus myosuroides (ALOMY); assay: Example B post-emergence herbicidal activity, glasshouse pot test; assay type: in vivo; details: 312 h, rate 250 g/ha, evaluated after 13 days, read-out: ALOMY post-emergence activity (100=total damage to plant; 0=no damage to plant)
# Summary of the method: as §2
# [18] = test system: Avena fatua (AVEFA); assay: as above; assay type: in vivo; details: 312 h, rate 250 g/ha, evaluated after 13 days, read-out: AVEFA post-emergence activity (100=total damage to plant; 0=no damage to plant)
# Summary of the method: as §2
# [19] = test system: Echinochloa crus-galli (ECHCG); assay: as above; assay type: in vivo; details: 312 h, rate 250 g/ha, evaluated after 13 days, read-out: ECHCG post-emergence activity (100=total damage to plant; 0=no damage to plant)
# Summary of the method: as §2
# [20] = test system: Setaria faberi (SETFA); assay: as above; assay type: in vivo; details: 312 h, rate 250 g/ha, evaluated after 13 days, read-out: SETFA post-emergence activity (100=total damage to plant; 0=no damage to plant)
# Summary of the method: as §2
SMILES,pest or weed control at 250 g/ha [1] [%],pest or weed control at 250 g/ha [2] [%],pest or weed control at 250 g/ha [3] [%],pest or weed control at 250 g/ha [4] [%],pest or weed control at 250 g/ha [5] [%],pest or weed control at 250 g/ha [6] [%],pest or weed control at 125 g/ha [7] [%],pest or weed control at 125 g/ha [8] [%],pest or weed control at 125 g/ha [9] [%],pest or weed control at 125 g/ha [10] [%],pest or weed control at 125 g/ha [11] [%],pest or weed control at 125 g/ha [12] [%],pest or weed control at 250 g/ha [13] [%],pest or weed control at 250 g/ha [14] [%],pest or weed control at 250 g/ha [15] [%],pest or weed control at 250 g/ha [16] [%],pest or weed control at 250 g/ha [17] [%],pest or weed control at 250 g/ha [18] [%],pest or weed control at 250 g/ha [19] [%],pest or weed control at 250 g/ha [20] [%],also measured
CCOC(=O)OC1=C(c2cc(-c3ccc(Cl)cc3)c(C)cc2C)C(=O)NC12CCN(OC)CC2 [Compound P53],0,30,60,50,20,40,20,0,60,60,0,50,0,0,0,80,70,30,90,90,melting point: 211 to 213 °C
CCOC(=O)OC1=C(c2c(C)cc(-c3ccc(Cl)cc3)cc2C)C(=O)NC12CCN(OC)CC2 [Compound P70],70,70,100,100,30,100,0,10,100,100,0,90,90,90,100,100,100,100,100,100,melting point: 217 to 219 °C
CON1CCC2(CC1)NC(=O)C(c1c(C)cc(-c3ccc(Cl)cc3)cc1C)C2=O (stereo not drawn) [Compound T23],40,50,100,100,40,100,100,100,100,100,80,100,70,90,90,100,100,100,100,100,melting point: 255 to 257 °C
CON1CCC2(CC1)NC(=O)C(c1ccc(Br)cc1Cl)=C2OC(=O)C(C)(C)C [Compound P67],0,40,20,60,10,50,40,60,80,70,40,70,80,60,70,100,100,60,100,90,melting point: 223 to 225 °C
